Measured values from US8309553B2, “Anhydrous crystal form of ovrepitant maleate” (Glaxo Group Limited, priority 2008, dated 2012).

Assays:
[1] = hygroscopicity of the crystalline form (statement only, no method described); assay type: physicochemical; settings: solid form
[2] = stability of the crystalline form (statement only, no method described); assay type: physicochemical

hygroscopicity [1]: essentially non hygroscopic | thermodynamic stability relative to Form 2 ([2]; compared with Form 2 orvepitant maleate): thermodynamically more stable | stability of the crystalline form ([2]; solid form): particularly stable
Compound: Cc1cc(F)ccc1[C@H]1C[C@@H](N2CCN3C(=O)CC[C@H]3C2)CCN1C(=O)N(C)[C@H](C)c1cc(C(F)(F)F)cc(C(F)(F)F)c1.O=C(O)/C=C\C(=O)O [Form 1, (2R,4S)—N-{(1R)-1-[3,5-bis(trifluoromethyl)phenyl]ethyl}-2-(4-fluoro-2-methylphenyl)-N-methyl-4-[(8aS)-6-oxohexahydropyrrolo[1,2-a]pyrazin-2(1H)-yl]-1-piperidinecarboxamide maleate]
